US20070099915A1, “INHIBITORS OF THE HIV INTEGRASE ENZYME” (PFIZER INC., priority 2005, published 2007)
pEC50, pIC50: −log10 of the molar value. Like-named read-outs stand apart in the source and are kept apart here.

Key:
[1] = target: T1, Full-length wild type HIV-1 integrase (SF1) (Human immunodeficiency virus type 1 group M subtype B, UniProt P04585); test: Integrase strand-transfer scintillation proximity assay; type: biochemical
T1 construct: made in house; host or cells: E. coli BL21 (DE3)
Description: The annealed product represents preprocessed viral ds-DNA derived from the LTR U5 sequence of the viral genome. A ds-DNA control to test for non-specific interactions was made using a 3′ di-deoxy derivative of oligonucleotide #1 annealed to oligonucleotide #2. The CA overhang at the 5′ end of the non-biotinylated strand of the ds-DNA was created artificially by using a complimentary DNA oligonucleotide shortened by 2 base pairs. This configuration eliminates the requisite 3′ processing step of the integrase enzyme prior to the strand-transfer mechanism.
The annealed product had overhanging 3′ ends of poly(dA). […] The radiolabeled product was purified using a NENSORB cartridge and stored in stabilized aqueous solution (PerkinElmer).
Reagents: Streptavidin-coated polyvinyltoluene (PVT) SPA beads were purchased from Amersham Biosciences (Piscataway, N.J.). Cesium chloride was purchased from Shelton Scientific, Inc. (Shelton, Conn.). White, polystyrene, flat-bottom, non-binding surface, 96-well plates were purchased from Corning. All other buffer components were purchased from Sigma (St. Louis, Mo.) unless otherwise indicated.
Enzyme Construction: Full-length wild type HIV-1 integrase (SF1) sequence (amino acids 1-289) was constructed in a pET24a vector (Novagen, Madison, Wis.).
Enzyme Purification: Full length wild-type HIV Integrase was expressed in E. coli BL21 (DE3) cells and induced with 1 mM isopropyl-1 thio-β-D-galactopyranoside (IPTG) when cells reached an optical density between 0.8-1.0 at 600 nm. Cells were lysed by microfluidation in 50 mM HEPES pH 7.0, 75 mM NaCl, 5 mM DTT, 1 mM 4-(2-Aminoethyl)benzenesulfonylfluoride HCl (AEBSF). Lysate was then centrifuged 20 minutes at 11 k rpm in GSA rotor in Sorvall RC-5B at 4° C. Supernant was discarded and pellet resuspended in 50 mM HEPES pH 7.0, 750 mM NaCl, 5 mM DTT, 1 mM AEBSF and homogenized in a 40 mL Dounce homogenizer for 20 minutes on ice. Homogenate was then centrifuged 20 minutes at 11 k rpm in SS34 rotor in Sorvall RC-5B at 4° C. Supernant was discarded and pellet resuspended in 50 mM HEPES pH 7.0, 750 mM NaCl, 25 mM CHAPS, 5 mM DTT, 1 mM AEBSF. Preparation was then centrifuged 20 minutes at 11 k rpm in SS34 rotor in Sorvall RC-5B at 4° C.
Supernant was then diluted 1:1 with 50 mM HEPES pH 7.0, 25 mM CHAPS, 1 mM DTT, 1 mM AEBSF and loaded onto a Q-Sepharose column pre-equilibrated with 50 mM HEPES, pH 7.0, 375 mM NaCl, 25 mM CHAPS, 1 mM DTT, 1 mM AEBSF. The flow through peak was collected and NaCl diluted to 0.1 M with 50 mM HEPES pH 7.0, 25 mM CHAPS, 1 mM DTT, 0.5 mM AEBSF and loaded onto a SP-Sepharose column pre-equilibrated with 50 mM HEPES pH 7.0, 100 mM NaCl, 25 mM CHAPS, 1 mM DTT, 0.5 mM AEBSF. After washing the column with the equilibration buffer, a 100 to 400 mM NaCl gradient was run. The eluted integrase was concentrated and run on a S-300 gel diffusion column using 50 mM HEPES pH 7.0, 500 mM NaCl, 25 mM CHAPS, 1 mM DTT, 0.5 mM AEBSF. […] All columns were run in a 4° C. cold room.
Viral DNA Bead Preparation: Streptavidin-coated SPA beads were suspended to 20 mg/mL in 25 mM 3-morpholinopropanesulfonic acid (MOPS) (pH 7.2) and 1.0% NaN3. Biotinylated viral DNA was bound to the hydrated SPA beads in a batch process by combining […] of ds-DNA to 1 mg of suspended SPA beads (10 μL of 50 μM viral DNA to 1 mL of 20 mg/mL SPA beads). The mixture was incubated at 22° C. for a minimum of 20 min. with occasional mixing followed by centrifugation at 2500 rpm for 10 min.

[2] = system: HIV-1 RF virus in CEM-SS cells; test: HIV-1 cell protection assay (XTT dye reduction); type: cell-based
Procedure: Six days later, 50 μl of XTT solution (1 mg/ml XTT tetrazolium and 20 nM phenazine methosulfate) were added to the wells and the plates were reincubated for four hours. Viability, as determined by the amount of XTT formazan produced, was quantified spectrophotometrically by absorbance at 450 nm.
Data from CPE assays were expressed as the percent of formazan produced in compound-treated cells compared to formazan produced in wells of uninfected, compound-free cells. […] The 50% cytotoxicity concentration (CC50) was calculated as the concentration of compound that decreased the percentage of formazan produced in uninfected, compound-treated cells to 50% of that produced in uninfected, compound-free cells. The therapeutic index was calculated by dividing the cytotoxicity (CC50) by the antiviral activity (EC50).

[3] = strand-transfer SPA, 246 nM integrase, 50 nM host DNA, 37° C., 50 min, read-out: IC50
[4] = Human immunodeficiency virus 1, 144 h, RF strain of HIV-1, CEM-SS cells, XTT read-out after six days, read-out: EC50
[5] = Human immunodeficiency virus 1, CEM-SS, 144 h

Row | Compound | pIC50 [1, 3] | pEC50 [2, 4] | pIC50 [1] | pEC50 [2, 5]
1 | CC(=O)CCCOCc1cn(Cc2ccc(F)cc2)c2cnc3c(c12)CCN(O)C3=O [Example 63, 3-(4-fluorobenzyl)-7-hydroxy-1-{[(4-oxopentyl)oxy]methyl}-3,7,8,9-tetrahydro-6H-pyrrolo[2,3-c]-1,7-naphthyridin-6-one] | 8.00 | 8.52 | – | –
2 | O=C1c2ncc3c(c(CCO)cn3Cc3ccc(F)cc3)c2CCN1O [Example 110, 3-(4-fluorobenzyl)-7-hydro-1-(2-hydroxyethyl)-8,9-dihydro-3H-pyrrolo[2,3-c][1,7]naphthyridin-6(7H)-one] | 7.96 | 8.30 | – | –
3 | CCOCCOCc1cn(Cc2ccc(F)cc2)c2cnc3c(c12)CCN(O)C3=O [Example 31, 1-[(2-ethoxyethoxy)methyl]-3-(4-fluorobenzyl)-7-hydroxy-3,7,8,9-tetrahydro-6H-pyrrolo[2,3-c]-1,7-naphthyridin-6-one] | 7.48 | 8.30 | – | –
4 | O=C1c2ncc3c(c(CNCC(F)F)cn3Cc3ccc(F)cc3)c2CCN1O [Example 81, 1-{[(2,2-difluoroethyl)amino]methyl}-3-(4-fluorobenzyl)-7-hydroxy-3,7,8,9-tetrahydro-6H-pyrrolo[2,3-c]-1,7-naphthyridin-6-one] | 8.10 | 9.49 | – | –
5 | O=C1c2ncc3c(c(COCC4CCC4)cn3Cc3ccc(F)cc3)c2CCN1O [Example 79, 1-[(cyclobutylmethoxy)methyl]-3-(4-fluorobenzyl)-7-hydroxy-3,7,8,9-tetrahydro-6H-pyrrolo[2,3-c]-1,7-naphthyridin-6-one] | 8.00 | 9.00 | – | –
6 | COCCN(Cc1cn(Cc2ccc(F)cc2)c2cnc3c(c12)CCN(O)C3=O)C(C)(C)C [Example 40, 1-{[tert-butyl(2-methoxyethyl)amino]methyl}-3-(4-fluorobenzyl)-7-hydroxy-3,7,8,9-tetrahydro-6H-pyrrolo[2,3-c]-1,7-naphthyridin-6-one] | 7.61 | 8.34 | – | –
7 | CCn1ccnc1CN(C)Cc1cn(Cc2ccc(F)cc2)c2cnc3c(c12)CCN(O)C3=O [Example 70, 1-{[[(1-ethyl-1H-imidazol-2-yl)methyl](methyl)amino]methyl}-3-(4-fluorobenzyl)-7-hydroxy-3,7,8,9-tetrahydro-6H-pyrrolo[2 3-c]-1,7-naphthyridin-6-one] | 7.66 | 7.37 | – | –
8 | CC(C)CN(C)Cc1cn(Cc2ccc(F)cc2)c2cnc3c(c12)CCN(O)C3=O [Example 123, 3-(4-fluorobenzyl)-7-hydroxy-1-{[isobutyl(methyl)amino]methyl}-3,7,8,9-tetrahydro-6H-pyrrolo[2,3-c]-1,7-naphthyridin-6-one] | 7.36 | 8.80 | – | –
9 | COCCN(C)CCc1cn(Cc2ccc(F)cc2)c2cnc3c(c12)CCN(O)C3=O [Example 118, 3-(4-fluorobenzyl)-7-hydroxy-1-{2-[(2-methoxyethyl)(methyl)amino]ethyl}-3,7,8,9-tetrahydro-6H-pyrrolo[2,3-c]-1,7-naphthyridin-6-one] | 7.70 | 7.89 | – | –
10 | CC(=O)C1CCN(Cc2cn(Cc3ccc(F)cc3)c3cnc4c(c23)CCN(O)C4=O)CC1 [Example 99, 1-[(4-acetylpiperidin-1-yl)methyl]-3-(4-fluorobenzyl)-7-hydroxy-3,7,8,9-tetrahydro-6H-pyrrolo[2,3-c]-1,7-naphthyridin-6-one] | 7.66 | 8.30 | – | –
11 | O=C1c2ncc3c(c(CO)cn3Cc3ccc(F)cc3)c2CCN1O [Example 25, 3-(4-fluorobenzyl)-7-hydroxy-1-(hydroxymethyl)-3,7,8,9-tetrahydro-6H-pyrrolo[2,3-c]-1,7-naphthyridin-6-one] | – | – | 7.92 | 8.52
12 | CN1CCN(CCCc2cn(Cc3ccc(F)cc3)c3cnc4c(c23)CCN(O)C4=O)CC1=O [Example 127, 3-(4-fluorobenzyl)-7-hydroxy-1-[3-(4-methyl-3-oxopiperazin-1-yl)propyl]-3,7,8,9-tetrahydro-6H-pyrrolo[2,3-c]-1,7-naphthyridin-6-one] | 7.85 | 7.40 | – | –
13 | CN(CCc1cn(Cc2ccc(F)cc2)c2cnc3c(c12)CCN(O)C3=O)CC1CC1 [Example 114] | 7.72 | 8.00 | – | –
14 | N#Cc1cccc(Cn2ccc3c4c(ncc32)C(=O)N(O)CC4)c1 [Example 85, 3-[(7-hydroxy-6-oxo-6,7,8,9-tetrahydro-3H-pyrrolo[2,3c]1,7-naphthyridin-3-yl)methyl]benzonitrile] | 6.25 | 6.34 | – | –
15 | CN1CCN(C(=O)c2cn(Cc3ccc(F)cc3)c3cnc4c(c23)CCN(O)C4=O)CC1 [Example 17, 3-(4-fluorobenzyl)-7-hydroxy-1-[(4-methylpiperazin-1-yl)carbonyl]-3,7,8,9-tetrahydro-6H-pyrrolo[2,3-c]-1,7-naphthyridin-6-one] | 7.77 | – | – | 6.82
16 | Cc1cc2c(ncc3c2c(CO)cn3Cc2ccc(F)cc2)c(=O)n1O [Example 47, 3-(4-fluorobenzyl)-7-hydroxy-1-(hydroxymethyl)-8-methyl-3,7-dihydro-6H-pyrrolo[2,3-c]-1,7-naphthyridin-6-one] | – | – | 8.22 | 9.41
17 | O=C1c2ncc3c(c(CN4CCCC4)cn3Cc3ccc(F)cc3)c2CCN1O [Example 23, 3-(4-fluorobenzyl)-7-hydroxy-1-(pyrrolidin-1-ylmethyl)-3,7,8,9-tetrahydro-6H-pyrrolo[2,3-c]-1,7-naphthyridin-6-one] | – | – | 7.57 | 8.40
18 | CCCOCCOCc1cn(Cc2ccc(F)cc2)c2cnc3c(c12)CCN(O)C3=O [Example 75, 3-(4-fluorobenzyl)-7-hydroxy-1-[(2-propoxyethoxy)methyl]-3,7,8,9-tetrahydro-6H-pyrrolo[2,3-c]-1,7-naphthyridin-6-one] | 7.77 | 9.15 | – | –
19 | O=c1c2ncc3c(c(COCC4CCC4)cn3Cc3ccc(F)cc3)c2ccn1O [Example 90, 1-[(cyclobutylmethoxy)methyl]-3-(4-fluorobenzyl)-7-hydroxy-3,7-dihydro-6H-pyrrolo[23-c]-17-naphthyridin-6-one] | 7.23 | 7.85 | – | –
20 | O=C1c2ncc3c(c(COCCOCc4ccccc4)cn3Cc3ccc(F)cc3)c2CCN1O [Example 57, 1-{[2-(benzyloxy)ethoxy]methyl}-3-(4-fluorobenzyl)-7-hydroxy-3,7,8,9-tetrahydro-6H-pyrrolo[2,3-c]-1,7-naphthyridin-6-one] | 7.92 | 9.16 | – | –
21 | O=C1c2ncc3c(c(CCNCC(F)(F)F)cn3Cc3ccc(F)cc3)c2CCN1O [Example 115, 3-(4-fluorobenzyl)-7-hydroxy-1-{2-[(2,2,2-trifluoroethyl)amino]ethyl}-3,7,8,9-tetrahydro-6H-pyrrolo[2,3-c]-1,7-naphthyridin-6-one] | 7.85 | 8.70 | – | –
